Molecules are shown by their SMILES. The source made the active and inactive calls. The rule behind the calls is not given here.

One may read the IC50 as the midpoint of a concentration-inhibition curve.

One assay deals with Dengue virus. Nature of the assay: Antiviral activity against DENV infected in African green monkey Vero cells assessed as reduction in plague formation incubated for 72 hrs by immunofluorescence assay. It is filed as functional, organism-based.
The subject of another assay is Influenza A virus. Kind of assay: Antiviral activity against influenza virus H1N1 infected in MDCK cells assessed as reduction in plague formation incubated for 72 hrs by immunofluorescence assay. It is filed as functional, organism-based.
The subject of another assay is Influenza A virus H3N2. Nature of the assay: Antiviral activity against influenza virus H3N2 infected in MDCK cells assessed as reduction in plague formation incubated for 72 hrs by immunofluorescence assay. It is filed as functional, organism-based.
The subject of the next assay is Kunjin virus. Nature of the assay: Antiviral activity against West Nile virus Kunjin infected in African green monkey Vero cells assessed as reduction in plague formation incubated for 72 hrs by immunofluorescence assay. Type of assay: functional.
The next assay concerns NFF. Nature of the assay: Cytotoxicity against human NFF cells assessed as reduction in cell viability incubated for 6 days by SRB assay. Type of assay: cell-based. The note with it: 144 h. (The SRB assay estimates cell density from bound dye.)
The next assay relates to SK-MEL-28. Nature of the assay: Cytotoxicity against human SK-MEL-28 cells assessed as reduction in cell viability incubated for 6 days by SRB assay. Type of assay: functional, cell-based. The note with it: SK-MEL-28, 144 h.
Another assay concerns MCF7. Kind of assay: Cytotoxicity against human MCF7 cells assessed as reduction in cell viability incubated for 6 days by SRB assay. Type of assay: functional, cell-based. Particulars: MCF7, 144 h.

For the compound `C=C/C(C)=C/C[C@H]1C(C)=CC[C@@H]2[C@]1(C)CCC[C@@]2(C)C(=O)O`, the concentration for half-maximal inhibition (IC50) with Dengue virus turned out to be 1.4 µM; in the assay with Influenza A virus, 4.1 µM; in the assay on Influenza A virus H3N2, 18 µM; in the assay on Kunjin virus it was 1.2 µM.
Take `C=C[C@]1(C)C[C@]2(O)[C@H](OC(C)=O)C(=O)[C@H]3C(C)(C)CC[C@H](O)[C@]3(COC(C)=O)[C@H]2C[C@@H]1OC(C)=O`: the outcome in the assay on Dengue virus was Active. Besides, the IC50 in the assay with NFF is over 200 µM; in the assay with SK-MEL-28, over 200 µM; in the assay on MCF7, 179 µM.
With `C=C1CC[C@@H]2[C@](C)(CO)[C@H](O)CC[C@@]2(C)[C@@H]1C/C=C1/C(=O)OC[C@H]1O` [ANDROGRAPHOLIDE], in the assay on Dengue virus, the outcome was Active. The outcome in the assay on Influenza A virus and in the assay with Influenza A virus H3N2 was inactive. Besides, in the assay on Kunjin virus, the half-inhibitory concentration (IC50) stood at 100 µM.
As for `C=C[C@]1(C)C[C@@]23O[C@@H](OC(C)=O)C4([C@H]2C[C@@H]1O)[C@@H](O)CCC(C)(C)[C@@H]4C(=O)[C@H]3OC(C)=O`, in the assay on Dengue virus, the result was Active. Also, the IC50 in the assay on NFF amounted to 95 µM; with SK-MEL-28, 158 µM; in the assay with MCF7, 86 µM.
Turning to `C=C[C@]1(C)C[C@@]2(O)[C@H](CC1=O)C13CO[C@@](O)([C@H]1[C@@](C)(COC(=O)c1ccccc1)CC[C@H]3O)[C@H]2OC(C)=O`, the result in the assay with Dengue virus was Active. In addition, the values for the half-inhibitory concentration (IC50) in the assay on NFF, in the assay with SK-MEL-28 and in the assay with MCF7 were 53 µM, 70 µM and 57 µM, respectively.
